Measurements published in the NIST ThermoML archive (doi:10.1016/j.jct.2004.04.010).
± gives the expanded uncertainty stated by the source.

Test: mn = molality of the nth substance listed, in mol/kg
Settings: 298.15 K, 101.3 kPa, Liquid

mass density (m1 = 0.2) [kg/m3] | mass density (m1 = 0.4) [kg/m3] | mass density (m1 = 0.6) [kg/m3] | mass density (m1 = 0.8) [kg/m3] | mass density (m1 = 1) [kg/m3] | mass density (m1 = 1.2) [kg/m3] | mass density (m1 = 0.015) [kg/m3] | mass density (m1 = 0.03) [kg/m3] | mass density (m1 = 0.05) [kg/m3] | mass density (m1 = 0.075) [kg/m3] | mass density (m1 = 0.1) [kg/m3] | Structure (SMILES)
1008.06 ± 0.2 | 1018.64 ± 0.22 | 1028.67 ± 0.23 | 1038.38 ± 0.24 | 1047.69 ± 0.24 | 1056.36 ± 0.27 |  |  |  |  |  | O=C[C@@H](O)[C@H](O)[C@H](O)CO [D-(-)-arabinose] + O
 |  |  |  |  |  | 998.969 ± 0.14 | 1000.88 ± 0.14 | 1003.43 ± 0.14 | 1006.61 ± 0.14 | 1009.77 ± 0.15 | [Cl-].[Cs+] [cesium chloride] + O
1010.68 ± 0.22 | 1023.7 ± 0.28 | 1036.15 ± 0.33 | 1047.98 ± 0.39 | 1059.4 ± 0.45 | 1070.22 ± 0.5 |  |  |  |  |  | O=C[C@H](O)[C@@H](O)[C@@H](O)[C@H](O)CO [(+)-galactose] + O
1007.72 ± 0.21 | 1017.95 ± 0.26 | 1027.8 ± 0.3 | 1037.28 ± 0.35 | 1046.38 ± 0.39 | 1055.19 ± 0.44 |  |  |  |  |  | O=C[C@H](O)[C@@H](O)[C@H](O)CO [D-xylose] + O
